Assay: xn = mol fraction of the nth substance listed
Details: 296.15 K, 101 kPa, Liquid, WTW LF538 Conductivity Meter

CCCCCCCC[n+]1ccn(C)c1.F[B-](F)(F)F [1-methyl-3-octylimidazolium tetrafluoroborate] + O
Details | electrical conductivity [S/m]
x1 = 0.000109 | 0.067
x1 = 0.000164 | 0.095
x1 = 0.000219 | 0.123
x1 = 0.000274 | 0.149
x1 = 0.000326 | 0.172
x1 = 0.000384 | 0.196
x1 = 0.000439 | 0.22
x1 = 0.000494 | 0.24
x1 = 0.000549 | 0.262
x1 = 0.000605 | 0.284
x1 = 0.00066 | 0.305
x1 = 0.000715 | 0.326
x1 = 0.000772 | 0.346
x1 = 0.000883 | 0.386
x1 = 0.000995 | 0.424
x1 = 0.001107 | 0.463

CCCCCCCCCCn1cc[n+](C)c1.F[B-](F)(F)F [1-decyl-3-methylimidazolium tetrafluoroborate] + O
Details | electrical conductivity [S/m]
x1 = 2.5e-05 | 0.018
x1 = 3.8e-05 | 0.026
x1 = 5.1e-05 | 0.034
x1 = 6.4e-05 | 0.042
x1 = 7.6e-05 | 0.049
x1 = 8.9e-05 | 0.056
x1 = 0.000102 | 0.063
x1 = 0.000115 | 0.07
x1 = 0.000128 | 0.076
x1 = 0.000139 | 0.082
x1 = 0.000153 | 0.089
x1 = 0.000166 | 0.096
x1 = 0.000179 | 0.101
x1 = 0.000204 | 0.113
x1 = 0.00023 | 0.125
x1 = 0.000256 | 0.137

CCCCCCn1cc[n+](C)c1.F[B-](F)(F)F [1-hexyl-3-methylimidazolium tetrafluoroborate] + O
Details | electrical conductivity [S/m]
x1 = 0.000466 | 0.231
x1 = 0.000711 | 0.329
x1 = 0.000949 | 0.419
x1 = 0.001193 | 0.505
x1 = 0.001435 | 0.584
x1 = 0.001677 | 0.663
x1 = 0.001925 | 0.74
x1 = 0.002172 | 0.812
x1 = 0.002421 | 0.875
x1 = 0.002671 | 0.949
x1 = 0.002925 | 1.014
x1 = 0.003177 | 1.07
x1 = 0.003433 | 1.126
x1 = 0.003948 | 1.25
x1 = 0.004469 | 1.36
x1 = 0.005 | 1.447

Source: the NIST ThermoML archive (doi:10.1016/j.jct.2011.12.025)
